Experimental findings from patent US12390437B2, “Itaconic acid derivatives and uses thereof intreating an inflammatory disease or a disease associated with an undesirable immune response” (Sitryx Therapeutics Limited, priority 2019, dated 2025) are described below.

Data set [1] is described as follows: Mouse pharmacokinetic study, oral administration. In kind it is in vivo. As to conditions: male, C57BL/6, mouse, plasma, po, 100 mg/kg, plasma, male C57BL/6 mice, oral gavage 100 mg/kg; for concentration at 0.083 h: read-out: Parent compound concentrations following oral administration, Time 0.083 h; for concentration at 0.25 h: read-out: Parent compound concentrations following oral administration, Time 0.25 h; for concentration at 0.5 h: read-out: Parent compound concentrations following oral administration, Time 0.5 h; for concentration at 1 h: read-out: Parent compound concentrations following oral administration, Time 1 h; for concentration at 2 h: read-out: Parent compound concentrations following oral administration, Time 2 h; for concentration at 4 h: read-out: Parent compound concentrations following oral administration, Time 4 h; for concentration at 6 h: read-out: Parent compound concentrations following oral administration, Time 6 h; for concentration at 8 h: read-out: Parent compound concentrations following oral administration, Time 8 h; for concentration at 24 h: read-out: Parent compound concentrations following oral administration, Time 24 h. The procedure, abridged:
(§1)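 Oral arm: 100 mg/kg gavage in 5% DMSO with 0.5% HPMC/0.1% Tween 80, blood from 5 min to 24 h. Intravenous arm: 10 mg/kg tail-vein injection in 10% DMSO with HP-β-CD, blood from 3 min to 8 h. Male C57BL/6 mice; LC-MS/MS on plasma.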

The nature of data set [2]: Mouse pharmacokinetic study, intravenous dosing. As to conditions: male, C57BL/6, mouse, iv, plasma, 10 mg/kg i.v., read-out: Parent compound concentration following intravenous administration. The data set is classed as in vivo. The procedure, abridged:
as §1

The test system of another data set is hepatocytes. Nature of the data set: Hepatocyte stability assay (mouse). In kind it is in vitro ADME. As to conditions: 10 μM compound, 0.5×10^6 cells/mL, 60 minutes. The procedure, abridged:
(§2)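 Cryopreserved hepatocytes (viability >70%), 0.5×10^6 cells/mL in Leibovitz buffer, incubated at 37 °C with 10 μM compound (0.1% DMSO), duplicates; buffer-only incubations as negative control. Samples at 0-60 min quenched in acetonitrile, parent measured by LC-MS/MS; half-life and Clint (μL min^−1 10^−6 cells) from ln % remaining versus time slope.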

Data set [3] can be described thus: Hepatocyte stability assay (mouse). The settings on record: cryopreserved hepatocytes, 10 μM compound, 0.5×10^6 cells/mL, 60 minutes, read-out: T½. The data set is classed as in vitro ADME. Put shortly: as §2

For the compound `C=C(CC(=O)O[C@@H](C)CCCCCC)C(=O)OCCc1nnn[nH]1` [Example 129, (S)-1-(2-(1H-tetrazol-5-yl)ethyl) 4-octan-2-yl 2-methylenesuccinate], in data set [1], the concentration at 0.083 h was 305 ng/mL, the concentration at 0.25 h was found to be 1030 ng/mL, the concentration at 0.5 h came out at 109 ng/mL and the concentration at 1 h came to 255 ng/mL. For the same compound, in data set [1], the concentration at 2 h is 61 ng/mL, the concentration at 4 h stood at 13 ng/mL, the concentration at 6 h turned out to be 16 ng/mL and the concentration at 8 h was determined as 11 ng/mL. Further, the concentration at 24 h in data set [1] was 3.5 ng/mL. Also, in data set [2], the concentration at 0.05 h amounted to 2920 ng/mL, the concentration at 0.133 h is 872 ng/mL, the concentration at 0.25 h stood at 309 ng/mL and the concentration at 0.5 h worked out at 96 ng/mL. For the same compound, in data set [2], the concentration at 1 h is 7.7 ng/mL, the concentration at 2 h is less than 1.6 ng/mL, the concentration at 4 h is less than 1.6 ng/mL and the concentration at 6 h was less than 1.6 ng/mL. Besides, the concentration at 8 h in data set [2] is less than 1.6 ng/mL. Further, in the data set on hepatocytes, the “CIint (μL min^−1 10^−6 cells)” value was determined as 378 μL min^−1 10^−6 cells. In addition, the half-life at 10 μM in data set [3] was 4 min.
For the compound `C=C(CC(=O)OC1CCCCCCC1)C(=O)OC(C)c1nnn[nH]1` (stereo not drawn) [Example 133, 1-(1-(1H-tetrazol-5-yl)ethyl) 4-cyclooctyl 2-methylenesuccinate], in data set [1], the concentration at 0.083 h came to 9360 ng/mL, the concentration at 0.25 h is 9940 ng/mL, the concentration at 0.5 h worked out at 4270 ng/mL and the concentration at 1 h is 1100 ng/mL. Further, in data set [1], the concentration at 2 h amounted to 527 ng/mL, the concentration at 4 h amounted to 799 ng/mL, the concentration at 6 h worked out at 146 ng/mL and the concentration at 8 h was found to be 101 ng/mL. The concentration at 24 h in data set [1] was less than 8 ng/mL. Also, in data set [2], the concentration at 0.05 h is 11000 ng/mL, the concentration at 0.133 h was found to be 4570 ng/mL, the concentration at 0.25 h was found to be 1950 ng/mL and the concentration at 0.5 h was found to be 315 ng/mL. In data set [2], the concentration at 1 h amounted to 33 ng/mL, the concentration at 2 h was less than 8 ng/mL, the concentration at 4 h was less than 8 ng/mL and the concentration at 6 h was less than 8 ng/mL. The concentration at 8 h in data set [2] is less than 8 ng/mL. Moreover, the “CIint (μL min^−1 10^−6 cells)” value in the data set with hepatocytes is 107 μL min^−1 10^−6 cells. The half-life at 10 μM in data set [3] was determined as 14 min.
Take `C=C(CC(=O)OC1CCCCCCC1)C(=O)OCc1nnn[nH]1` [Example 134, 1-((1H-tetrazol-5-yl)methyl) 4-cyclooctyl 2-methylenesuccinate]: in data set [1], the concentration at 0.083 h amounted to 17500 ng/mL, the concentration at 0.25 h is 3500 ng/mL, the concentration at 0.5 h worked out at 7970 ng/mL and the concentration at 1 h was determined as 1980 ng/mL. Further, in data set [1], the concentration at 2 h was found to be 856 ng/mL, the concentration at 4 h is 636 ng/mL, the concentration at 6 h worked out at 94 ng/mL and the concentration at 8 h came to 62 ng/mL. Also, the concentration at 24 h in data set [1] was 7 ng/mL. In data set [2], the concentration at 0.05 h was 31600 ng/mL, the concentration at 0.133 h was 7760 ng/mL, the concentration at 0.25 h worked out at 2890 ng/mL and the concentration at 0.5 h was found to be 4300 ng/mL. In data set [2], the concentration at 1 h worked out at 74 ng/mL, the concentration at 2 h amounted to 12 ng/mL, the concentration at 4 h worked out at 11 ng/mL and the concentration at 6 h amounted to 1.4 ng/mL. In data set [2], the concentration at 8 h amounted to 1.7 ng/mL. Further, the “CIint (μL min^−1 10^−6 cells)” value in the data set on hepatocytes was 256 μL min^−1 10^−6 cells. In data set [3], the half-life at 10 μM is 7 min.
Take `C=C(CC(=O)O[C@H](C)CCCCCC)C(=O)OCc1nn[nH]n1` [Example 161, (R)-1-((2H-tetrazol-5-yl)methyl) 4-(octan-2-yl) 2-methylenesuccinate]: in data set [1], the concentration at 0.083 h was found to be 7020 ng/mL, the concentration at 0.25 h was determined as 4340 ng/mL, the concentration at 0.5 h is 1900 ng/mL and the concentration at 1 h is 1260 ng/mL. In data set [1], the concentration at 2 h came to 727 ng/mL, the concentration at 4 h is 186 ng/mL, the concentration at 6 h is 108 ng/mL and the concentration at 8 h came to 16 ng/mL. The concentration at 24 h in data set [1] was less than 4 ng/mL. For the same compound, in data set [2], the concentration at 0.05 h is 8890 ng/mL, the concentration at 0.133 h is 2380 ng/mL, the concentration at 0.25 h was found to be 846 ng/mL and the concentration at 0.5 h is 343 ng/mL. In data set [2], the concentration at 1 h is 90 ng/mL, the concentration at 2 h is 5.1 ng/mL, the concentration at 4 h was less than 4 ng/mL and the concentration at 6 h is less than 4 ng/mL. Besides, the concentration at 8 h in data set [2] was less than 4 ng/mL. The “CIint (μL min^−1 10^−6 cells)” value in the data set with hepatocytes is recorded as greater than 460 μL min^−1 10^−6 cells. Further, the half-life at 10 μM in data set [3] is less than 3 min.
On to `C=C(CC(=O)O[C@@H](C)CCCCCC)C(=O)OCc1nn[nH]n1` [Example 164, (S)-1-(2H-tetrazol-5-yl)methyl 4-octan-2-yl 2-methylenesuccinate], for which, in data set [1], the concentration at 0.083 h came out at 3790 ng/mL, the concentration at 0.25 h stood at 2970 ng/mL, the concentration at 0.5 h came to 1860 ng/mL and the concentration at 1 h worked out at 968 ng/mL. For the same compound, in data set [1], the concentration at 2 h came to 585 ng/mL, the concentration at 4 h was 381 ng/mL, the concentration at 6 h was 135 ng/mL and the concentration at 8 h came out at 181 ng/mL. In data set [1], the concentration at 24 h was less than 4 ng/mL. In addition, in data set [2], the concentration at 0.05 h was 6690 ng/mL, the concentration at 0.133 h is 1250 ng/mL, the concentration at 0.25 h turned out to be 534 ng/mL and the concentration at 0.5 h stood at 211 ng/mL. For the same compound, in data set [2], the concentration at 1 h amounted to 18 ng/mL, the concentration at 2 h is less than 4 ng/mL, the concentration at 4 h was less than 4 ng/mL and the concentration at 6 h is less than 4 ng/mL. In addition, the concentration at 8 h in data set [2] was less than 4 ng/mL. In addition, the “CIint (μL min^−1 10^−6 cells)” value in the data set on hepatocytes came out at 259 μL min^−1 10^−6 cells. Further, the half-life at 10 μM in data set [3] is 5 min.
Regarding `C=C(CC(=O)OC1C(C)(C)CC1(C)C)C(=O)OCC(=O)O` [Example 169, 2-((2-methylene-4-oxo-4-(2,2,4,4-tetramethylcyclobutoxy)butanoyl)oxy) acetic acid], in data set [1], the concentration at 0.083 h was determined as 37800 ng/mL, the concentration at 0.25 h came out at 9880 ng/mL, the concentration at 0.5 h is 4600 ng/mL and the concentration at 1 h was 1750 ng/mL. Besides, in data set [1], the concentration at 2 h is 971 ng/mL, the concentration at 4 h amounted to 215 ng/mL, the concentration at 6 h came out at 57 ng/mL and the concentration at 8 h stood at 7.7 ng/mL. Further, the concentration at 24 h in data set [1] was less than 0.8 ng/mL. Besides, in data set [2], the concentration at 0.05 h was 15600 ng/mL, the concentration at 0.133 h was 6430 ng/mL, the concentration at 0.25 h amounted to 2800 ng/mL and the concentration at 0.5 h was determined as 516 ng/mL. For the same compound, in data set [2], the concentration at 1 h is 8.6 ng/mL, the concentration at 2 h worked out at 2.5 ng/mL, the concentration at 4 h was found to be 1.3 ng/mL and the concentration at 6 h is less than 0.8 ng/mL. In data set [2], the concentration at 8 h was less than 0.8 ng/mL. In addition, in the data set with hepatocytes, the “CIint (μL min^−1 10^−6 cells)” value is 38 μL min^−1 10^−6 cells. Further, the half-life at 10 μM in data set [3] amounted to 34 min.
